# Entries after “also recorded” stand apart in the source; their conditions may differ.
# Tests used:
# [1] = tested on: firefly luciferase translation reporter; assay: Firefly luciferase translation reporter assay; assay type: cell-based, human
# From the text: Graphs represent 4 biological repetitions per treatment—2 independent treatments of a compound of Formula II.
# Graphs represent 4 biological repetitions per treatment. […] No difference is observed between Hippuristanol and Hippuristanol plus a compound of Formula II.
# The degree of translation inhibition is shown to be equivalent to that of a known inhibitor of translation, hippuristanol (FIGS. 3b and 5). Comparative structured 5′UTR firefly luciferase reporter experiments conducted using either hippuristanol or a compound of Formula II show the inhibition of reporter levels is equivalent.
# (§1) Cells were transfected using FuGene 6 (Roche) following the manufacturer's instructions. The activities of firefly and renilla luciferase in lysates prepared from transfected cells were measured using a commercially available Luciferase reporter assay system (Promega) and light emission was measured over a 10 sec interval using a TECAN luminometer. For each experiment described, data was obtained from a minimum of at least 3 biological repetitions per treatment.
# [2] = tested on: actin 5′UTR; assay: 5′UTR firefly luciferase reporter assay, actin; assay type: cell-based, human; conditions: Neuroblastoma cells; FIG. 3d
# Method: (§2) The 5′UTRs of genes which negatively associate with the progression of Alzheimer's disease—amyloid precursor protein (APP) and beta secretases (BACE) are all inhibited by treatment with a compound of Formula II, whereas the equivalent reporter levels of housekeeping genes actin and thioredoxin (TXN) are not inhibited. […] Neuroblastoma cells were transfected 24 hours prior to treatment with a compound of Formula II. After treatment, cells were prepared as described in the materials and methods. Each experiment represents between 6 and 8 biological repetitions.
# (§3) Experiments conducted using Firefly luciferase reporter plasmids containing the 5′ untranslated regions (UTRs) of the genes amyloid precursor protein (APP), thioredoxin (TXN) were conducted with reagents and materials described by Bottley et al, 2010. Experiments conducted using Firefly luciferase reporter plasmids containing the 5′ UTRs of the genes EGFR, BACE1 and Actin were conducted with reagents and materials described by Webb, 2012 (http://etheses.nottingham.ac.uk/2724/). […]
# as §1, with “For each experiment described, data was obtained from a minimum of at least 3 biological repetitions per treatment.” left out
# [3] = tested on: thioredoxin (TXN) 5′UTR; assay: 5′UTR firefly luciferase reporter assay, TXN; assay type: cell-based, human; conditions: Neuroblastoma cells; FIG. 3d
# Method: as §2, §3
# as §1, with “For each experiment described, data was obtained from a minimum of at least 3 biological repetitions per treatment.” left out
# [4] = tested on: epidermal growth factor receptor (EGFR) 5′UTR; assay: 5′UTR firefly luciferase reporter assay, EGFR; assay type: cell-based, human; conditions: Neuroblastoma cells; FIG. 3d
# Method: as §2
# After treatment with the compound of Formula II the levels of translation of a reporter construct containing the 5′UTR of amyloid precursor protein, which is processed into toxic amyloid the major constituent of amyloid plaques in Alzheimer's disease, is inhibited relative to equivalent control treatments. […]
# as §1, with “For each experiment described, data was obtained from a minimum of at least 3 biological repetitions per treatment.” left out
# [5] = tested on: NLGN1 5′UTR; assay: NLGN translation reporter assay, neuroligin 1; assay type: cell-based, human; conditions: FIG. 5: 1 μM Hippuristanol, 1.3 μM compound; FIG. 10: compound 46
# Method: (§4) The mechanism of action and level of activity of Formula II are consistent with and comparative to a proven translational inhibitor extracted from a rare coral species (Hippuristanol—a proven inhibitor of eIf4A). In this experiment 1 μM of Hippuristanol and 1.3 μM of Formula I was used
# (§5) FIG. 10—Compound 46, NLGN Translation reporter assay.
# Direct evidence is provided that inhibiting eIF4A represents a new route to treating ASD based on the data presented by Gkogkas et al. Nature 2013, 493:371-7.
# Treatment with the compound of Formula II (and compound 46) (FIG. 5 and FIG. 10) selectively decrease the firefly luciferase signal from a reporter construct containing the NLGN1 5′UTR upstream of a firefly luciferase gene. The translation of luciferase reporters downstream of the NLGN1 5′UTR has been proven to be dependent on the activity of the translation initiation complex eIF4F (Gkogkas et al Nature 2013, 493:371-7)—a complex containing the helicase eIF4A. Equivalent treatment had little effect on the signal generated from either a co-transfected renilla luciferase reporter control or cells transfected with an equivalent construct containing the NLGN2 5′UTR upstream of a firefly luciferase gene (FIG. 5 and FIG. 10).
# as §3
# as §1, with “For each experiment described, data was obtained from a minimum of at least 3 biological repetitions per treatment.” left out
# [6] = tested on: NLGN2 5′UTR; assay: NLGN translation reporter assay, neuroligin 2; assay type: cell-based, human; conditions: equivalent treatment; FIG. 5 and FIG. 10
# Method: as §4, §5
# Treatment with the compound of Formula II (and compound 46) (FIG. 5 and FIG. 10) selectively decrease the firefly luciferase signal from a reporter construct containing the NLGN1 5′UTR upstream of a firefly luciferase gene. The translation of luciferase reporters downstream of the NLGN1 5′UTR has been proven to be dependent on the activity of the translation initiation complex eIF4F (Gkogkas et al Nature 2013, 493:371-7)—a complex containing the helicase eIF4A. […]
# as §1, with “For each experiment described, data was obtained from a minimum of at least 3 biological repetitions per treatment.” left out
# [7] = tested on: Cap-dependent (eIF4A dependant) translation; assay: CrPV assay, cap-dependent translation (firefly luciferase); assay type: cell-based; conditions: 20 μM, 3 hours treatment, FIG. 12
# From the text: FIG. 12—CrPV assay—Natural molecule targets eIF4A.
# By using a well characterised luciferase based reporter assay it was further determined that this class of molecule functions as a protein synthesis inhibitor via targeting the helicase eIF4A.
# [8] = tested on: SH-SY5Y neuroblastoma cancer cells; assay: Cell proliferation, SH-SY5Y; assay type: cell-based; conditions: 96 hours, plus 2.5 μM Cisplatin, higher doses (10 μg) of Formula II
structure (smiles),measurement,setting,value
"CC/C=C\C/C=C\C/C=C\CCCCCCCC(=O)OC[C@H](COC1OC(CO)C(O)C(O)C1O)OC(=O)CCCCCCC/C=C\C/C=C\C/C=C\CC (stereo partly drawn) [Formula II, 1,2-dioctadecatienyl-3-O-β-D-galactosyl-sn-glycerol]",difference between Hippuristanol and Hippuristanol plus Formula II,"[1]; Hippuristanol 1 μM, 4 hrs, FIG. 3c",No difference
same,inhibition of translation reporter,"[1]; Hippuristanol (1 μM) plus Formula II, 4 hrs, FIG. 3c",significant inhibition
same,inhibition of translation reporter activity,"[1]; neuroblastoma cells, treated 4 hrs, compound alone, FIG. 3b",equivalent to treatment with 1 μM Hippuristanol
same,"firefly luciferase reporter levels, actin 5′UTR",[2],not inhibited
same,"firefly luciferase reporter levels, TXN 5′UTR",[3],not inhibited
same,"firefly luciferase reporter activity, EGFR 5′UTR",[4],selectively inhibited; also recorded: significant inhibition (p=0.005)
same,translation of NLGN1 5′UTR firefly luciferase reporter relative to neuroligin 2,[5],selectively reduces the translation
same,signal of NLGN2 5′UTR firefly luciferase reporter,[6],little effect
same,cap dependant translation (firefly luciferase signal),[7],selectively reduces the translation of the firefly luciferase gene
same,cap dependant translation (firefly luciferase signal),[7]; listed as Synthetic version of the natural molecule,inhibited
same,kill of SH-SY5Y cells in combination with Cisplatin,[8],complete kill
